Source: paper PMC9951321
Converted amounts (≈) assume the structure as drawn. Where a SMILES comes first, the peptide text is derived from it.

Legend:
E. coli [1] = experiment: K+ out-diffusion, atomic absorption spectrometry; conditions: 4 × MIC, 1 h; untreated 13.47 µg mL^−1; n = 3
[2] = system: Escherichia coli ATCC 8739; experiment: MIC, broth micro-dilution; format: cell-based
Escherichia coli MDR = experiment: MIC, broth micro-dilution; format: cell-based; conditions: for MIC: 24 h; for MIC against E. coli MDR relative to wild-type E. coli strains: fold higher than those of wild-type E. coli strains
[3] = system: Salmonella Typhimurium ATCC 14028; experiment: MIC, broth micro-dilution; format: cell-based; conditions: 24 h
[4] = system: Klebsiella pneumoniae ATCC 13883; experiment: MIC, broth micro-dilution; format: cell-based
[5] = system: Acinetobacter baumannii ATCC 17978; experiment: MIC, broth micro-dilution; format: cell-based
[6] = system: Pseudomonas aeruginosa ATCC 10145; experiment: MIC, broth micro-dilution; format: cell-based
[7] = system: Enterobacter cloacae ATCC 13047; experiment: MIC, broth micro-dilution; format: cell-based
[8] = system: Enterococcus faecium ATCC 19434; experiment: MIC, broth micro-dilution; format: cell-based
[9] = system: Staphylococcus aureus ATCC 25923; experiment: MIC, broth micro-dilution; format: cell-based
[10] = system: Staphylococcus aureus MRSA ATCC 43300; experiment: MIC, broth micro-dilution; format: cell-based; conditions: 24 h
E. coli [11] = experiment: PGN integrity assay (susceptibility to lysozyme-mediated lysis); conditions: cells grown with 0.625 µmol L^−1 (1/4 × MIC); 1 mg mL^−1 lysozyme, within 20 min incubation, 25 °C

## CC[C@H](C)[C@H](NC(=O)[C@@H](N)CCCNC(=N)N)C(=O)N[C@@H](CCCCN)C(=O)N[C@H](C(=O)N[C@@H](CCCNC(=N)N)C(=O)N[C@H](C(=O)N[C@@H](Cc1c[nH]c2ccccc12)C(=O)N[C@@H](CCCNC(=N)N)C(=O)N[C@@H](CC(C)C)C(=O)N[C@@H](C)C(=O)N[C@@H](CC(C)C)C(=O)N[C@@H](CCCNC(=N)N)C(=O)N[C@@H](Cc1c[nH]c2ccccc12)C(=O)N[C@@H](CC(C)C)C(=O)N[C@@H](CCCCN)C(=O)N[C@@H](CC(C)C)C(=O)O)[C@@H](C)O)[C@@H](C)O [KTR] (H-RIKTRTWRLALRWLKL-OH)
E. coli [1]
  Extracellular K^+ content: 21.53 µg/mL

## colistin
[2]; Escherichia coli ATCC 8739, broth micro-dilution in MHB, 37 °C, 24 h, triplicate
  MIC: 3.2 µM
Escherichia coli MDR; Escherichia coli MDR, multi-drug resistant clinical isolate, broth micro-dilution in MHB, 37 °C, triplicate
  MIC: 102.1 µM
Escherichia coli MDR
  MIC against E. coli MDR relative to wild-type E. coli strains: ≥ 32 fold
[3]; Salmonella Typhimurium ATCC 14028, broth micro-dilution in MHB, 37 °C, triplicate
  MIC: 6.4 µM
[4]; Klebsiella pneumoniae ATCC 13883, broth micro-dilution in MHB, 37 °C, 24 h, triplicate
  MIC: 12.8 µM
[5]; Acinetobacter baumannii ATCC 17978, broth micro-dilution in MHB, 37 °C, 24 h, triplicate
  MIC: 1.6 µM
[6]; Pseudomonas aeruginosa ATCC 10145, broth micro-dilution in MHB, 37 °C, 24 h, triplicate
  MIC: 6.4 µM
[7]; Enterobacter cloacae ATCC 13047, broth micro-dilution in MHB, 37 °C, 24 h, triplicate
  MIC: 204.2 µM
[8]; Enterococcus faecium ATCC 19434, broth micro-dilution in MHB, 37 °C, 24 h, triplicate
  MIC: 204.2 µM
[9]; Staphylococcus aureus ATCC 25923, broth micro-dilution in MHB, 37 °C, 24 h, triplicate
  MIC: 12.8 µM
[10]; Staphylococcus aureus MRSA ATCC 43300, broth micro-dilution in MHB, 37 °C, triplicate
  MIC: 51.1 µM

## NC[C@H]1O[C@H](O[C@H]2[C@H](O)[C@@H](O[C@H]3O[C@H](CO)[C@@H](O)[C@H](N)[C@H]3O)[C@H](N)C[C@@H]2N)[C@H](N)C[C@@H]1O [Tob, tobramycin]
[2]; Escherichia coli, ATCC8739, 24 h
  MIC: 4.3 µM (≈ 2.01 µg/mL)
Escherichia coli MDR; Escherichia coli
  MIC: 548 µM (≈ 256 µg/mL)
Escherichia coli MDR
  MIC against E. coli MDR relative to wild-type E. coli strains: at least 128 fold
[3]; Salmonella enterica
  MIC: 17.1 µM (≈ 7.99 µg/mL)
[4]; Klebsiella pneumoniae, ATCC13883, 24 h
  MIC: 2.1 µM (≈ 0.982 µg/mL)
[5]; Acinetobacter baumannii, ATCC17978, 24 h
  MIC: 2.1 µM (≈ 0.982 µg/mL)
[6]; Pseudomonas aeruginosa, ATCC10145, 24 h
  MIC: 4.3 µM (≈ 2.01 µg/mL)
[7]; Enterobacter cloacae, ATCC13047, 24 h
  MIC: 2.1 µM (≈ 0.982 µg/mL)
[8]; Enterococcus faecium, ATCC19434, 24 h
  MIC: 274 µM (≈ 128 µg/mL)
[9]; Staphylococcus aureus, ATCC25923, 24 h
  MIC: 17.1 µM (≈ 7.99 µg/mL)
[10]; Staphylococcus aureus
  MIC: 548 µM (≈ 256 µg/mL)

## CC[C@H](C)[C@H](NC(=O)[C@@H](N)CCCNC(=N)N)C(=O)N[C@@H](CCCCN)C(=O)N[C@H](C(=O)N[C@@H](C)C(=O)N[C@H](C(=O)N[C@@H](Cc1c[nH]c2ccccc12)C(=O)N[C@@H](CCCNC(=N)N)C(=O)N[C@@H](CC(C)C)C(=O)N[C@@H](C)C(=O)N[C@@H](CC(C)C)C(=O)N[C@@H](CCCNC(=N)N)C(=O)N[C@@H](Cc1c[nH]c2ccccc12)C(=O)N[C@@H](CC(C)C)C(=O)N[C@@H](CCCCN)C(=O)N[C@@H](CC(C)C)C(=O)O)[C@@H](C)O)[C@@H](C)O [KTA] (H-RIKTATWRLALRWLKL-OH)
E. coli [1]
  Extracellular K^+ content: 18.92 µg/mL
E. coli [11]
  Reduction of OD600 nm of treated cells with lysozyme: 17.2%
